In brackets after ≈: the same amount, converted by molar mass.
How the values were obtained:
S. aureus [1] = assay: Planktonic MIC in presence or absence of isolated biofilm matrix; format: cell-based, Staphylococcus aureus
Protocol: (§1) Minimum inhibitory concentrations (MICs) for antibacterial and antifungal agents were determined using the broth microdilution method according to CLSI guidelines M07-A9 (for S. aureus) and M27-A3 (for C. albicans), but replacing Muller-Hinton broth with RPMI-1640 for antibacterial MIC testing. One hundred microlitres of two-fold serial dilutions of the drugs prepared in RPMI-1640 were added into the wells of 96-well microplates. Exponentially grown cultures were diluted in RPMI-1640 to a density of ˜1×10^3 CFU/mL for C. albicans and ˜1×10^6 CFU/mL for S. aureus and 100 μL were added to each well. Microplates were incubated for 18 h at 35° C. for S. aureus and 48 h for C. albicans. Bacterial or fungal growth was examined visually with the aid of a mirror reader. The antibacterial MIC was defined as the lowest concentration resulting in complete growth inhibition. The MIC of antifungals was read as the lowest concentration that prevents discernible growth for amphotericin B or polymers, or as the lowest concentration that inhibits at least 50% of fungal growth for fluconazole and caspofungin, corresponding to a score of zero or two in the CLSI M27-A3 protocol.
(§2) Extracellular matrix was isolated from Candida or polymicrobial biofilms following the method reported in PLoS pathogens 2012, 8:e1002848. Biofilms were established by growing cultures in 6-well TCPS microplates for 48 h at 37° C. Supernatants were carefully removed from each well and the biofilms were washed once with sterile distilled water. One millilitre of distilled water was added into each well, and the biofilms were removed using a cell scraper. This step was repeated three times. The suspensions containing dislodged biofilms were then transferred into a 50 ml Falcon tube, sonicated with a Branson Sonicator for 10 min (duty cycle constant, output 20%). The suspensions were vortexed for 2 min at full speed (4×30 s), prior to centrifugation at 6000 rpm for 15 min for 5 times. The supernatants containing the extracellular matrix were removed and stored at −20° C. […]

S. aureus [2] = assay: Broth microdilution MIC, planktonic cells; format: cell-based; settings: Staphylococcus aureus; S. aureus single species culture, RPMI-1640, 18 h
S. aureus biofilms = assay: Antimicrobial susceptibility of single biofilm (XTT, biofilm MIC80); format: cell-based, Staphylococcus aureus; settings: S. aureus single species biofilm, 18 h treatment
Protocol: (§3) Single biofilms of S. aureus or C. albicans were set up in 96-well microplates as described above. After overnight incubation, the cell suspensions were aspirated and the wells were rinsed twice with 100 μL of PBS per well to remove non-adherent cells. Two hundred microlitres of antimicrobial agents were added into each well, and the treatments lasted for 18 h for S. aureus and 48 h for C. albicans. After the treatment, the suspensions were removed and the microwells were washed twice with PBS. Two hundred microlitres of 2, 3-bis (2-methoxy-4-nitro-5-sulfophenyl)-5-[(phenylamino) carbonyl]-2H-tetrazolium hydroxide (XTT, 0.5 mg/L) solution were added into each well and the microplate were incubated at 37° C. in the dark for 2 h. One hundred microliters of XTT solution were transferred to a new microplate and read at OD492. Alternatively, the efficacy of antimicrobial agents against biofilms was determined based on the reduction in viable counts after exposure to antimicrobials. The ratio of cell survival (cell density after antimicrobial treatment) relative to antimicrobial-free culture (cell density of the drug-free biofilms) (×100) was calculated.

C. albicans [3] = assay: Broth microdilution MIC, planktonic cells; format: cell-based, Candida albicans; settings: C. albicans single species culture, RPMI-1640, 48 h
Protocol: as §1

C. albicans biofilms = assay: Antimicrobial susceptibility of single biofilm (XTT, biofilm MIC80); format: cell-based, Candida albicans; settings: for Biofilm MIC80: C. albicans single species biofilm, 48 h treatment; for Activity against C. albicans monomicrobial biofilms: compared with planktonic growth
Protocol: as §3

[4] = tested on: S. aureus 24 h single biofilms; assay: Catheter lock solution re-growth assay (MBEC); format: cell-based, Staphylococcus aureus; settings: S. aureus 24 h biofilm, 18 h exposure
Protocol: (§4) Biofilms were washed three times with saline to remove the residual antimicrobial agents. Two hundred microliter volumes of TSB were then added to each well and microplates were incubated at 35° C. for a further 48 h. A microplate shaker (speed 2) ([…], Flow laboratories, Germany) was used to facilitate the multiplication and release of any living cells remaining in the biofilms. After 48 h, 150 μL of the contents in each well in the microplate was transferred to a U-bottom microplate and examined visually for turbidity. The lowest concentration of antimicrobial agents corresponding to clear wells was defined as the minimum biofilm eradication concentration (MBEC) for successful use as CLS.

[5] = tested on: C. albicans 24 h single biofilms; assay: Catheter lock solution re-growth assay (MBEC); format: cell-based, Candida albicans; settings: C. albicans 24 h biofilm, 18 h exposure
Protocol: as §4

[6] = tested on: C. albicans-S. aureus polymicrobial biofilms; assay: Catheter lock solution re-growth assay (MBEC); format: cell-based, Candida albicans and Staphylococcus aureus; settings: polymicrobial 24 h biofilm, 18 h exposure
Protocol: as §4

C. albicans [7] = assay: Planktonic MIC in presence or absence of isolated biofilm matrix; format: cell-based, Candida albicans
Protocol: as §1, §2

With CN[C@H](CC(C)C)C(=O)N[C@H]1C(=O)N[C@@H](CC(N)=O)C(=O)N[C@H]2C(=O)N[C@H]3C(=O)N[C@H](C(=O)N[C@H](C(=O)O)c4cc(O)cc(O)c4-c4cc3ccc4O)[C@H](O)c3ccc(c(Cl)c3)Oc3cc2cc(c3O[C@@H]2O[C@H](CO)[C@@H](O)[C@H](O)[C@H]2O[C@H]2C[C@](C)(N)[C@H](O)[C@H](C)O2)Oc2ccc(cc2Cl)[C@H]1O [Vancomycin, vancomycin] the “MIC, C. albicans biofilm matrix” value (S. aureus [1]; S. aureus, in presence of C. albicans biofilm matrix) was 1 mg/L, the “MIC, polymicrobial biofilm matrix” value (S. aureus [1]; S. aureus, in presence of polymicrobial biofilm matrix) was 2 mg/L and the MIC (S. aureus [1]; Staphylococcus aureus, read-out: MIC, medium only) was 2 µg/mL (≈ 1.38 µM). For the same compound, the MIC (S. aureus [2]) was 1 µg/mL (≈ 0.69 µM) and the “Biofilm MIC80” value (S. aureus biofilms) was >1024 mg/L.
In the case of CC[C@H](C)C[C@H](C)CCCCCCCCC(=O)N[C@H]1C[C@@H](O)[C@@H](NCCN)NC(=O)[C@@H]2[C@@H](O)CCN2C(=O)[C@H]([C@H](O)CCN)NC(=O)[C@H]([C@H](O)[C@@H](O)c2ccc(O)cc2)NC(=O)[C@@H]2C[C@@H](O)CN2C(=O)[C@H]([C@@H](C)O)NC1=O [Caspofungin, caspofungin], the MIC (C. albicans [3]; Candida albicans) is reported as 1 µg/mL (≈ 0.915 µM), the “Biofilm MIC80” value (C. albicans biofilms) is reported as 0.12 mg/L and the “Activity against C. albicans monomicrobial biofilms” value (C. albicans biofilms) is reported as “retaining their activities”.
With C[C@@H]1[C@H](O)[C@@H](C)/C=C/C=C/C=C/C=C/C=C/C=C/C=C/[C@H](O[C@@H]2O[C@H](C)[C@@H](O)[C@H](N)[C@@H]2O)C[C@@H]2O[C@](O)(C[C@@H](O)C[C@@H](O)[C@H](O)CC[C@@H](O)C[C@@H](O)CC(=O)O[C@H]1C)C[C@H](O)[C@H]2C(=O)O [Amphotericin B, amphotericin B] the “Planktonic MIC” value (C. albicans [3]) was 1 mg/L, the “Biofilm MIC80” value (C. albicans biofilms) was 1 mg/L and the “Activity against C. albicans monomicrobial biofilms” value (C. albicans biofilms) was “retaining their activities”.
In the case of CCO [Ethanol, ethanol], the “MBEC as catheter lock solution” value [4] is reported as 20% (V/V), the “MBEC as catheter lock solution” value [5] is reported as 20% (V/V) and the “MBEC as catheter lock solution” value [6] is reported as 20% (V/V). For the same compound, the “MBEC as catheter lock solution” value ([6]; listed as ethanol) was 20 % (V/V).
In the case of Cc1onc(-c2ccccc2)c1C(=O)N[C@@H]1C(=O)N2[C@@H]1SC(C)(C)[C@@H]2C(=O)O [Oxacillin, oxacillin], the MIC (S. aureus [2]) is reported as 0.06 µg/mL (≈ 0.149 µM) and the “Biofilm MIC80” value (S. aureus biofilms) is reported as >1024 mg/L.
With OC(Cn1cncn1)(Cn1cncn1)c1ccc(F)cc1F [Fluconazole, fluconazole] the “Biofilm MIC80” value (C. albicans biofilms) was >1024 mg/L, the “Increase in MIC in presence of biofilm matrix” value (C. albicans [7]; C. albicans or polymicrobial biofilm matrix) was 16 fold and the “MIC, C. albicans biofilm matrix” value (C. albicans [7]; in presence of C. albicans biofilm matrix) was 8 mg/L. For the same compound, the “MIC, polymicrobial biofilm matrix” value (C. albicans [7]; in presence of polymicrobial biofilm matrix) was 8 mg/L.
With CO[C@H]1/C=C/O[C@@]2(C)Oc3c(C)c(O)c4c(O)c(c(/C=N/N5CCN(C)CC5)c(O)c4c3C2=O)NC(=O)/C(C)=C\C=C\[C@H](C)[C@H](O)[C@@H](C)[C@@H](O)[C@@H](C)[C@H](OC(C)=O)[C@@H]1C [Rifampicin, rifampicin] the MIC (S. aureus [2]) was 0.015 µg/mL (≈ 0.0182 µM) and the “Biofilm MIC80” value (S. aureus biofilms) was >1024 mg/L.
For O=C(O)c1cn(C2CC2)c2cc(N3CCNCC3)c(F)cc2c1=O [Ciprofloxacin, ciprofloxacin], the “Biofilm MIC80” value (S. aureus biofilms) was >1024 mg/L.
